Test results from patent publication US20160200716A1, “COBICISTAT DICHLOHYDRATE SALT” (ASSIA CHEMICAL INDUSTRIES LTD., priority 2012, published 2016).
Where a name gives a salt, the structure may show the parent alone.

Tests used:
[1] = Measurements of bulk density of mono- and dihydrochloride salts of Cobicistat; assay type: physicochemical; conditions: for volume filled by the salt in a glass cylinder (bulk density): about 0.30 g freely poured into glass cylinder without compaction, FIG. 12
Source text: Measurements of Bulk Density of Mono-and Dihydrochloride Salts of Cobicistat:
Cobicistat monohydrochloride and dihydrochloride, prepared according to examples 7 and 5 respectively, (about 0.30 g) were freely poured into two glass cylinders without compaction. While 0.30 g of Cobicistat monohydrochloride filled a volume of almost 5m1, 0.30 g of Cobicistat dihydrochloride filled a volume of less than 2m1.

[2] = Powder flowability / handling properties of Cobicistat hydrochloride salts; assay type: physicochemical; conditions: particle-shaped morphology, FIG. 9

| SMILES | volume filled by the salt in a glass cylinder (bulk density) [1] | flowability of the powder material [2] | bulk density compared with the monohydrochloride salt ([1]; as demonstrated in FIG. 12) |
| --- | --- | --- | --- |
| CC(C)c1nc(CN(C)C(=O)N[C@@H](CCN2CCOCC2)C(=O)N[C@H](CC[C@H](Cc2ccccc2)NC(=O)OCc2cncs2)Cc2ccccc2)cs1 [Cobicistat monohydrochloride, reference compound] | ~5 m1 | – | – |
| CC(C)c1nc(CN(C)C(=O)N[C@@H](CCN2CCOCC2)C(=O)N[C@H](CC[C@H](Cc2ccccc2)NC(=O)OCc2cncs2)Cc2ccccc2)cs1 [Cobicistat dihydrochloride] | less than 2 m1 | highly flowable | substantially higher |
